# Measurements published in PMC4707675 (ACS infectious diseases, 2015).
# Read-outs that look alike come from different tables or passages of the source.
# How the values were obtained:
# [1] = tested on: DHFR-overexpressing strain of Mtb (DHFR-oe); type: cell-based, Mycobacterium tuberculosis
# [2] = tested on: DHFR-overexpressing strain of Mtb (DHFR-oe); conditions: ref Nixon et al.[15]; cited from earlier work
SMILES,MIC90 DHFR-oe [1],MIC90 DHFR-oe [2]
N#Cc1ccc(Cn2ccc3c4c(N)nc(N)nc4ccc32)cc1 [PQD-1],>2 µM,
COc1cc(NCc2ccc3nc(N)nc(N)c3c2C)cc(OC)c1OC [Trimetrexate],,>100 µM
CC1(C)N=C(N)N=C(N)N1OCCCOc1cc(Cl)c(Cl)cc1Cl [WR99210],15 to 30 µM,
